Non-standard residues stand in square brackets, D forms with d. Residues, ends and D or L forms follow the SMILES beside them. No end group written: not given here. sY = N[C@@H](Cc1ccc(OS(=O)(=O)O)cc1)C(=O)O; pY = N[C@@H](Cc1ccc(OP(=O)(O)O)cc1)C(=O)O
Tests used:
[1] = biological target: T1, CCL21 (Homo sapiens, UniProt O00585); test: 15N-1H HSQC NMR titration of U-15N CCL21 with CCR7 N-terminal peptides; Kd by nonlinear fitting of chemical shift perturbations; assay type: binding; details: for Kd: 100 μM U-15N CCL21 titrated with peptide, NMR buffer 25 mM deuterated MES, 10% D2O, 0.2% NaN3, pH 6.0, 25 °C, fit of all CCL21 residues with significant chemical shift perturbations (11–30 sY17: only residues that did not broaden beyond detection), ± CI at 95% confidence level; for Kd, CCL21 K69 only (representative residue): nonlinear fitting of combined amide chemical shift perturbations of CCL21 residue K69 versus peptide concentration, 100 μM U-15N CCL21, pH 6.0, 25 °C
T1 construct: Our previous NMR studies defined the 3D structure of full-length CCL21; made in house
T1 sequence (O00585 24-134): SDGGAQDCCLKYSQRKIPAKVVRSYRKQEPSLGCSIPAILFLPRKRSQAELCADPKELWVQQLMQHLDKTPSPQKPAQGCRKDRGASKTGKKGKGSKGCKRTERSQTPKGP
Procedure: NMR spectroscopic data were collected at the NMR facility at the Medical College of Wisconsin on a Bruker Avance 600 MHz spectrometer equipped with ^1H/^13C/^15N Cryoprobe® at 25 °C. Chemical shift assignments for CCR7 1–30 C24A (H, N, C, C^α, and most side chain carbons) were determined by standard techniques using 1.05 mM U-^15N/^13C labeled CCR7 1–30 C24A in NMR buffer (25 mM deuterated MES, 10% D2O, 0.2% NaN3, pH 6.0). To determine CCR7 N-terminal residues likely involved in CCL21 binding, 200 μM U-^15N/^13C CCR7 1–30 C24A in NMR buffer was monitored using ^15N-^1H HSQC spectra while titrating with increasing CCL21 concentrations (molar ratios of 1:0, 1:0.25, 1:0.5, 1:0.75, 1:1, 1:1.5, 1:2 and 1:2.5 of CCR7:CCL21).
To identify the impact of CCR7 tyrosine modification on CCL21 binding, 100 μM of U-^15N CCL21 in NMR buffer was titrated with increasing concentrations of the indicated CCR7 peptides and monitored using ^15N-^1H HSQC spectra, as previously described. […] Combined amide chemical shift perturbations (Δδ) were computed as [(5ΔδH)^2+(ΔδN)^2]^1/2, where ΔδH and ΔδN are the changes in backbone amide ^1H and ^15N chemical shifts in ppm, respectively. Dose-dependent changes in chemical shift perturbations upon titration with the various CCR7 peptides were used to determine dissociation constant (Kd) values through nonlinear fitting to an equation that takes into account ligand depletion, as previously described.

[2] = biological target: T2, CCR7 5–11 sY8 (Homo sapiens, N-terminus assumed; SMILES CC[C@H](C)[C@H](NC(=O)[C@H](Cc1ccc(OS(=O)(=O)O)cc1)NC(=O)[C@H](CC(=O)O)NC(=O)[C@H](CC(=O)O)NC(=O)[C@@H](N)[C@@H](C)O)C(=O)NCC(=O)N[C@@H](CC(=O)O)C(N)=O); test: NMR
T2 chain: TDD[sY]IGD-NH2

[3] = biological target: T3, CCR7 5–11 (Homo sapiens); test: NMR
T3 chain: TDDYIGD-NH2

[4] = biological target: T4, CCR7 5–11 pY8 (Homo sapiens, N-terminus assumed; SMILES CC[C@H](C)[C@H](NC(=O)[C@H](Cc1ccc(OP(=O)(O)O)cc1)NC(=O)[C@H](CC(=O)O)NC(=O)[C@H](CC(=O)O)NC(=O)[C@@H](N)[C@@H](C)O)C(=O)NCC(=O)N[C@@H](CC(=O)O)C(N)=O); test: NMR
T4 chain: TDD[pY]IGD-NH2

In the case of `CC[C@H](C)[C@H](NC(=O)[C@H](Cc1ccc(OP(=O)(O)O)cc1)NC(=O)[C@H](CC(=O)O)NC(=O)[C@H](CC(=O)O)NC(=O)[C@@H](N)[C@@H](C)O)C(=O)NCC(=O)N[C@@H](CC(=O)O)C(N)=O` [CCR7 5–11 pY8] (H-TDD[pY]IGD-NH2), the Kd [1] is reported as 240 ± 60 µM.

In the case of `CC[C@H](C)[C@H](NC(=O)[C@H](Cc1ccc(OS(=O)(=O)O)cc1)NC(=O)[C@H](CC(=O)O)NC(=O)[C@H](CC(=O)O)NC(=O)[C@@H](N)[C@@H](C)O)C(=O)NCC(=O)N[C@@H](CC(=O)O)C(N)=O` [CCR7 5–11 sY8] (H-TDD[sY]IGD-NH2), the Kd [1] is reported as 140 ± 40 µM and the “Kd, CCL21 K69 only (representative residue)” value [1] is reported as 180 ± 40 µM.

For `CC(C)C[C@H](NC(=O)[C@H](CO)NC(=O)[C@H](CCC(=O)O)NC(=O)[C@H](Cc1ccccc1)NC(=O)[C@H](CC(C)C)NC(=O)[C@@H](NC(=O)[C@H](Cc1ccc(OP(=O)(O)O)cc1)NC(=O)[C@H](CC(=O)O)NC(=O)[C@@H](NC(=O)[C@@H](NC(=O)[C@@H](NC(=O)[C@H](CC(N)=O)NC(=O)[C@@H](N)CC(=O)O)[C@@H](C)O)[C@@H](C)O)C(C)C)[C@@H](C)O)C(=O)N[C@@H](C)C(=O)N[C@@H](CO)C(=O)N[C@@H](CCCCN)C(=O)N[C@@H](CCCCN)C(=O)N[C@@H](CC(=O)O)C(=O)N[C@H](C(=O)N[C@@H](CCCNC(=N)N)C(N)=O)C(C)C` [CCR7 11–30 pY17] (H-DNTTVD[pY]TLFESLASKKDVR-NH2), the Kd [1] was 1700 µM.

For `CC(C)C[C@H](NC(=O)[C@H](CO)NC(=O)[C@H](CCC(=O)O)NC(=O)[C@H](Cc1ccccc1)NC(=O)[C@H](CC(C)C)NC(=O)[C@@H](NC(=O)[C@H](Cc1ccc(OS(=O)(=O)O)cc1)NC(=O)[C@H](CC(=O)O)NC(=O)[C@@H](NC(=O)[C@@H](NC(=O)[C@@H](NC(=O)[C@H](CC(N)=O)NC(=O)[C@@H](N)CC(=O)O)[C@@H](C)O)[C@@H](C)O)C(C)C)[C@@H](C)O)C(=O)N[C@@H](C)C(=O)N[C@@H](CO)C(=O)N[C@@H](CCCCN)C(=O)N[C@@H](CCCCN)C(=O)N[C@@H](CC(=O)O)C(=O)N[C@H](C(=O)N[C@@H](CCCNC(=N)N)C(N)=O)C(C)C` [CCR7 11–30 sY17] (H-DNTTVD[sY]TLFESLASKKDVR-NH2), the Kd [1] was 480 ± 70 µM.

For DNTTVDYTLFESLASKKDVR-NH2 [CCR7 11–30], the Kd [1] was 6800 µM.

With TDDYIGD-NH2 [CCR7 5–11] the Kd [1] was 700 ± 300 µM and the “Kd, CCL21 K69 only (representative residue)” value [1] was 530 ± 40 µM.

B1: CCL21 (protein)
chain: T1 sequence (O00585 24-134)
In the case of B1, the Kd [2] is reported as 140 µM, the Kd [3] is reported as 700 µM and the Kd [4] is reported as 240 µM.
